Each compound was assayed against MYT1 protein (Homo sapiens (Human), UniProt Q99640) (assay: Test for binding to ATP binding site of MYT1 (Kinase Tracer 178 / Eu-Anti-GST antibody TR-FRET)). Conditions: ATP binding site of MYT1, 30 minutes at room temperature.
Chain of MYT1 protein (Q99640 whole entry): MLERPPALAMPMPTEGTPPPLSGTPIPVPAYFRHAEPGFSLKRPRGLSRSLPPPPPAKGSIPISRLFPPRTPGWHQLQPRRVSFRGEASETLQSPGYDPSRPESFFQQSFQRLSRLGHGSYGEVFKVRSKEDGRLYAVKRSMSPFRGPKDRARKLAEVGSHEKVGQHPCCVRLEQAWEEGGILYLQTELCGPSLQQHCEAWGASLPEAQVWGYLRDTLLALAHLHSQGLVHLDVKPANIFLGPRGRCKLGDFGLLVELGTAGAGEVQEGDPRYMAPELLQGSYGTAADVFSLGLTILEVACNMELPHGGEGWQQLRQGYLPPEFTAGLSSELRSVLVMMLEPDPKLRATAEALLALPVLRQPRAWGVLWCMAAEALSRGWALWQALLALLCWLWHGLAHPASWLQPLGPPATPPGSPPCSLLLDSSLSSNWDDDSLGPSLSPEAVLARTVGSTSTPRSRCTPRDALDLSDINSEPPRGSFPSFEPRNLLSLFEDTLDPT

IC50 [nM] | Structure (SMILES)
16 | Nc1c(-c2ccc(F)c3[nH]ncc23)c2cc(C3CC4(CC4)C3)c3ncccc3c2[nH]c1=O [Compound C175, 3-Amino-4-(7-fluoro-1H-indazol-4-yl)-6-spiro[2.3]hexan-5-yl-1H-1,7-phenanthrolin-2-one]
2.1 | N#CC1CC(c2cc3c(-c4ccc(F)c5[nH]ncc45)c(N)c(=O)[nH]c3c3cccnc23)C1 (stereo not shown) [Compound C176, 3-[3-Amino-4-(7-fluoro-1H-indazol-4-yl)-2-oxo-1H-1,7-phenanthrolin-6-yl]cyclobutane-1-carbonitrile]
2.1 | N#CC1(Cc2cc3c(-c4ccc(F)c5[nH]ncc45)c(N)c(=O)[nH]c3c3cccnc23)CC1 [Compound C177, 1-[[3-Amino-4-(7-fluoro-1H-indazol-4-yl)-2-oxo-1H-1,7-phenanthrolin-6-yl]methyl]cyclopropane-1-carbonitrile]
2.3 | N#C[C@H]1C[C@@H](c2cc3c(-c4ccc(F)c5[nH]ncc45)c(N)c(=O)[nH]c3c3cccnc32)C1 [Compound C178, (1s,3s)-3-[3-Amino-4-(7-fluoro-1H-indazol-4-yl)-2-oxo-1H-1,7-phenanthrolin-6-yl]cyclobutane-1-carbonitrile]
0.84 | N#C[C@H]1C[C@H](c2cc3c(-c4ccc(F)c5[nH]ncc45)c(N)c(=O)[nH]c3c3cccnc32)C1 [Compound C179, (1r,3r)-3-[3-Amino-4-(7-fluoro-1H-indazol-4-yl)-2-oxo-1H-1,7-phenanthrolin-6-yl]cyclobutane-1-carbonitrile]
41 | CC(C)(C)c1ccc2c(ccc3c(-c4ccc(F)c5[nH]ncc45)c(N)c(=O)[nH]c32)n1 [Compound C180, 3-Amino-8-tert-butyl-4-(7-fluoro-1H-indazol-4-yl)-1H-1,7-phenanthrolin-2-one]
23 | Cc1ccc2c(n1)c(I)cc1c(-c3ccc(F)c4[nH]ncc34)c(N)c(=O)[nH]c12 [Compound C181, 3-Amino-4-(7-fluoro-1H-indazol-4-yl)-6-iodo-8-methyl-1H-1,7-phenanthrolin-2-one]
5.5 | Cc1ccc2c(n1)c(C1CC1)cc1c(-c3ccc(F)c4[nH]ncc34)c(N)c(=O)[nH]c12 [Compound C182, 3-Amino-6-cyclopropyl-4-(7-fluoro-1H-indazol-4-yl)-8-methyl-1H-1,7-phenanthrolin-2-one]
110 | Cc1ccc2c(ccc3c(-c4ccc(F)c5[nH]ncc45)c(N)c(=O)[nH]c32)n1 [Compound C183, 3-Amino-4-(7-fluoro-1H-indazol-4-yl)-8-methyl-1H-1,7-phenanthrolin-2-one]
20 | Nc1c(-c2ccc(F)c3[nH]ncc23)c2cc(C(F)(F)F)c3ncccc3c2[nH]c1=O [Compound C187, 3-Amino-4-(7-fluoro-1H-indazol-4-yl)-6-(trifluoromethyl)-1H-1,7-phenanthrolin-2-one]
4.1 | Nc1c(-c2ccc(F)c3[nH]ncc23)c2cc(OC(F)(F)F)c3ncccc3c2[nH]c1=O [Compound C188, 3-Amino-4-(7-fluoro-1H-indazol-4-yl)-6-(trifluoromethoxy)-1H-1,7-phenanthrolin-2-one]
18 | Cc1cc2c(-c3ccc(F)c4[nH]ncc34)c(N)c(=O)[nH]c2c2cc(B(O)O)cnc12 [Compound C189, [3-Amino-4-(7-fluoro-1H-indazol-4-yl)-6-methyl-2-oxo-1H-1,7-phenanthrolin-9-yl]boronic acid]
6 | Nc1c(-c2cc(F)c(F)c3[nH]ncc23)c2cc(C3CC3)c3ncccc3c2[nH]c1=O [Compound C191, 3-Amino-6-cyclopropyl-4-(6,7-difluoro-1H-indazol-4-yl)-1H-1,7-phenanthrolin-2-one]

The next lines start with the compound.

Structure (SMILES) | IC50 [nM]
Nc1c(-c2ccc(F)c3[nH]ncc23)c2cc(C3CC3(F)F)c3ncccc3c2[nH]c1=O (stereo not shown) [Compound C145, 3-Amino-6-(2,2-difluorocyclopropyl)-4-(7-fluoro-1H-indazol-4-yl)-1H-1,7-phenanthrolin-2-one] | 3.1
Nc1c(-c2ccc(Cl)c3[nH]ncc23)c2cc(C3CCC3)c3ncccc3c2[nH]c1=O [Compound C147, 3-Amino-4-(7-chloro-1H-indazol-4-yl)-6-cyclobutyl-1H-1,7-phenanthrolin-2-one] | 5.2
N#Cc1cc2c(-c3ccc(Cl)c4[nH]ncc34)c(N)c(=O)[nH]c2c2cccnc12 [Compound C148, 3-Amino-4-(7-chloro-1H-indazol-4-yl)-2-oxo-1H-1,7-phenanthroline-6-carbonitrile] | 4.1
N#Cc1cc2c(-c3ccc(C#N)c4[nH]ncc34)c(N)c(=O)[nH]c2c2cccnc12 [Compound C149, 3-Amino-4-(7-cyano-1H-indazol-4-yl)-2-oxo-1H-1,7-phenanthroline-6-carbonitrile] | 380
CCc1cc2c(-c3ccc(Cl)c4[nH]ncc34)c(N)c(=O)[nH]c2c2cccnc12 [Compound C150, 3-Amino-4-(7-chloro-1H-indazol-4-yl)-6-ethyl-1H-1,7-phenanthrolin-2-one] | 1.9
Nc1c(-c2ccc(Cl)c3[nH]ncc23)c2cc(C3CCCC3)c3ncccc3c2[nH]c1=O [Compound C151, 3-Amino-4-(7-chloro-1H-indazol-4-yl)-6-cyclopentyl-1H-1,7-phenanthrolin-2-one] | 10
Cc1cc2c(-c3ccc(Cl)c4[nH]ncc34)c(N)c(=O)[nH]c2c2cccnc12 [Compound C152, 3-Amino-4-(7-chloro-1H-indazol-4-yl)-6-methyl-1H-1,7-phenanthrolin-2-one] | 4
Cc1cc2c(-c3ccc(C)c4[nH]ncc34)c(N)c(=O)[nH]c2c2cccnc12 [Compound C153, 3-Amino-6-methyl-4-(7-methyl-1H-indazol-4-yl)-1H-1,7-phenanthrolin-2-one] | 4.4
Nc1c(-c2c(F)ccc3[nH]ncc23)c2cc(Br)c3ncccc3c2[nH]c1=O [Compound C154, 3-Amino-6-bromo-4-(5-fluoro-1H-indazol-4-yl)-1H-1,7-phenanthrolin-2-one] | 3.3
Nc1c(-c2ccc(F)c3[nH]ncc23)c2cc(C3CCOC3)c3ncccc3c2[nH]c1=O (stereo not shown) [Compound C159, 3-Amino-4-(7-fluoro-1H-indazol-4-yl)-6-(oxolan-3-yl)-1H-1,7-phenanthrolin-2-one] | 2.3
Nc1c(-c2ccc(F)c3[nH]ncc23)c2cc(CCCF)c3ncccc3c2[nH]c1=O [Compound C160, 3-Amino-4-(7-fluoro-1H-indazol-4-yl)-6-(3-fluoropropyl)-1H-1,7-phenanthrolin-2-one] | 2.5
Nc1c(-c2ccc(F)c3[nH]ncc23)c2cc(CCC(F)(F)F)c3ncccc3c2[nH]c1=O [Compound C161, 3-Amino-4-(7-fluoro-1H-indazol-4-yl)-6-(3,3,3-trifluoropropyl)-1H-1,7-phenanthrolin-2-one] | 8.6
Nc1c(-c2ccc(F)c3[nH]ncc23)c2cc(C3CCC(F)(F)C3)c3ncccc3c2[nH]c1=O (stereo not shown) [Compound C162, 3-Amino-6-(3,3-difluorocyclopentyl)-4-(7-fluoro-1H-indazol-4-yl)-1H-1,7-phenanthrolin-2-one] | 12
Nc1c(-c2ccc(F)c3[nH]ncc23)c2cc(C3CCC(F)(F)CC3)c3ncccc3c2[nH]c1=O [Compound C163, 3-Amino-6-(4,4-difluorocyclohexyl)-4-(7-fluoro-1H-indazol-4-yl)-1H-1,7-phenanthrolin-2-one] | 24
Nc1c(-c2ccc(F)c3[nH]ncc23)c2cc(C3CC(F)(F)C3)c3ncccc3c2[nH]c1=O [Compound C164, 3-Amino-6-(3,3-difluorocyclobutyl)-4-(7-fluoro-1H-indazol-4-yl)-1H-1,7-phenanthrolin-2-one] | 8.6
Nc1c(-c2ccc(F)c3[nH]ncc23)c2cc(CC(F)(F)F)c3ncccc3c2[nH]c1=O [Compound C165, 3-Amino-4-(7-fluoro-1H-indazol-4-yl)-6-(2,2,2-trifluoroethyl)-1H-1,7-phenanthrolin-2-one] | 7.1
Nc1c(-c2ccc(F)c3[nH]ncc23)c2cc(C3CC4(C3)CC(F)(F)C4)c3ncccc3c2[nH]c1=O [Compound C166, 3-Amino-6-(2,2-difluorospiro[3,3]heptan-6-yl)-4-(7-fluoro-1H-indazol-4-yl)-1H-1,7-phenanthrolin-2-one] | 2.9
CC1(C)CC(c2cc3c(-c4ccc(F)c5[nH]ncc45)c(N)c(=O)[nH]c3c3cccnc23)C1 [Compound C167, 3-Amino-6-(3,3-dimethylcyclobutyl)-4-(7-fluoro-1H-indazol-4-yl)-1H-1,7-phenanthrolin-2-one] | 46
CC(c1cc2c(-c3ccc(F)c4[nH]ncc34)c(N)c(=O)[nH]c2c2cccnc12)C(F)(F)F (stereo not shown) [Compound C168, 3-Amino-4-(7-fluoro-1H-indazol-4-yl)-6-(1,1,1-trifluoropropan-2-yl)-1H-1,7-phenanthrolin-2-one] | 54
Nc1c(-c2ccc(F)c3[nH]ncc23)c2cc(C3CC4(CCC4)C3)c3ncccc3c2[nH]c1=O [Compound C169, 3-Amino-4-(7-fluoro-1H-indazol-4-yl)-6-spiro[3,3]heptan-2-yl-1H-1,7-phenanthrolin-2-one] | 86
Nc1c(-c2ccc(F)c3[nH]ncc23)c2cc(CC(F)F)c3ncccc3c2[nH]c1=O [Compound C170, 3-Amino-6-(2,2-difluoroethyl)-4-(7-fluoro-1H-indazol-4-yl)-1H-1,7-phenanthrolin-2-one] | 3.3
Nc1c(-c2ccc(F)c3[nH]ncc23)c2cc(CCC(F)F)c3ncccc3c2[nH]c1=O [Compound C171, 3-Amino-6-(3,3-difluoropropyl)-4-(7-fluoro-1H-indazol-4-yl)-1H-1,7-phenanthrolin-2-one] | 2.2
CC(C)(C)C1CC(c2cc3c(-c4ccc(F)c5[nH]ncc45)c(N)c(=O)[nH]c3c3cccnc23)C1 (stereo not shown) [Compound C173, 3-Amino-6-(3-tert-butylcyclobutyl)-4-(7-fluoro-1H-indazol-4-yl)-1H-1,7-phenanthrolin-2-one] | 95
CC1(C)CC2(CC(c3cc4c(-c5ccc(F)c6[nH]ncc56)c(N)c(=O)[nH]c4c4cccnc34)C2)C1 [Compound C174, 3-Amino-6-(2,2-dimethylspiro[3,3]heptan-6-yl)-4-(7-fluoro-1H-indazol-4-yl)-1H-1,7-one] | 140
